Data taken from patent publication US6503698B1, “Cryopreservation of swine embryos” (The United States of America as represented by the …, priority 2000, dated 2003).
Marks after values point to notes of the source that are not given here.

Test system: swine embryos
Test: Progressive development in vitro of swine embryos after cryopreservation by vitrification under the influence of microfilament stabilizer cytochalasin-b
Type: cell-based
Details: for % dev (progressive development in vitro after vitrification) / dev (number of embryos developed in vitro after vitrification): + cytochalasin-b
Protocol: Cyto-b is added to the medium for MF depolymerization. Studies were carried out which documented microfilament (MF) alterations during swine embryo vitrification (Dobrinsky et al. 2000, supra).
Developmental appraisals of the centrifuged cryopreserved embryos were carried out both in vitro and in vivo. For in vitro studies, morulae/blastocysts were cultured for 72 hours post-treatment. After culture, embryos were morphologically evaluated for their developmental progression. […] Since all morulae would have to develop into
Embryos were vitrified as described by Dobrinsky and Johnson (supra) in vitrification medium [6.5M glycerol, 6% bovine serum albumin-V (BSA-V; Sigma Chemical Co., St. Louis, Mo.)]. Prior to cryopreservation, for microfilament depolymerization, embryos were incubated at 39° C. in 5% CO2 and air, 95% humidity for 30-45 min in culture medium containing 7.5 μg/ml cyto-b (Sigma Chemical co., supra; stock=5 mg/ml 95% food grade EtOH). Following incubation in cyto-b, embryos were removed from culture and washed 3 times in 2 ml handling medium with cyto-b for 5 min and then equilibrated in 1 ml handling medium containing 6% BSA-V and cyto-b for 5 min. Embryos were then washed in vitrification equilibration medium (25% glycerol v/v, 6% BSA-V) containing cyto-b, then placed in 20 μl of vitrification equilibration medium containing cyto-b in a 1.5-ml microcentrifuge tube. The tube was placed and counterbalanced in an Eppendorf 5415 microcentrifuge and centrifuged for 13 min at 13,000 rpm. During centrifugation, embryos were dehydrated and equilibrated with glycerol. Total time in vitrification equilibration medium was about 20 min, including the centrifugation time.

C=C1[C@@H](C)[C@H]2[C@H](Cc3ccccc3)NC(=O)[C@]23OC(=O)/C=C/[C@H](O)CCC[C@@H](C)C/C=C/[C@H]3[C@@H]1O [Cytochalasin-b]
% dev (progressive development in vitro after vitrification) (HB1 = hatched blastocysts <400 μm diameter): 90^c;z % | dev (number of embryos developed in vitro after vitrification) (HB1 = hatched blastocysts <400 μm diameter, n 48): 43 | % dev (progressive development in vitro after vitrification) (HB2 = hatched blastocysts >400 μm diameter): 41% | dev (number of embryos developed in vitro after vitrification) (HB2 = hatched blastocysts >400 μm diameter, n 22): 9 | % dev (progressive development in vitro after vitrification) (MB = morulae/early blastocysts): 6^a % | dev (number of embryos developed in vitro after vitrification) (MB = morulae/early blastocysts, n 17): 1 | % dev (progressive development in vitro after vitrification) (XB = expanded blastocysts): 60^b;z % | dev (number of embryos developed in vitro after vitrification) (XB = expanded blastocysts, n 25): 15 | survival and development of expanded and hatched blastocysts after vitrification (expanded and hatched blastocysts, versus control without cyto-b): significantly (p<0.05) improved survival and development | morula/early blastocyst viability after vitrification (morulae/early blastocysts, versus control without cyto-b): did not appear to improve
